According to patent US10653138B2, “Composition for attracting bed bugs” (London School of Hygiene & Tropical Medicine, priority 2015, dated 2020):

Columns and labels:
[1] = tested on: bed bugs; assay: Behavioural bioassay, refined synthetic blends (Example 9); type: in vivo, Cimex lectularius
From the text: The behavioural bioassay was as described by Weeks et al. 2011 and recorded using EthoVision and the methodology described by Weeks et al. 2013. Each replicate was completed as a block of 10 treatments including: • 1. Bed bug-exposed paper (positive control) • 2. Ether (negative control) • 3. Nonanal 80× • 4. E-2-octenal 800× • 5. Nonanal 80× and E-2-octenal 80× (80-80) • 6. Nonanal 80× and E-2-octenal 800× (80-800) • 7. Nonanal 80× and E-2-octenal 8000× (80-8000) • 8. Nonanal 8× and E-2-octenal 800× (8-800) • 9. Nonanal 8× and E-2-octenal 8000× (8-8000) • 10. Nonanal 80×, E-2-octenal 80× and 1-octen-3-ol 80× (80-80-80)
We are referring here to either 1×, 10×, 100× or 1000× the dose of Nonanal or (E)-2-octenal found naturally in the aggregation pheromone. For instance, an “8% solution” refers to an 8% dose of volatile extract (with the various different ratios of individual component).
Therefore, 8× means that it is 1 of standard volatiles, 8×=1× standard, 80×=10× standard and 800×=100× standard. 8000×=1000× standard.
In each block the order of the treatments and the position of the odour pot were randomized. 18 blocks were completed.

[2] = tested on: bed bug antennae; assay: Coupled gas chromatography-electroantennography (GC-EAG) of volatile extract from bed bug-exposed paper; design: species or system Cimex lectularius; conditions: for Electrophysiology Auto method: bullet = marked under the Auto method; for Responses Total: males plus females, 20 insects tested; for Responses Females: number of females giving an EAG response to the peak; for Responses Females / Responses Males: volatile extract 1 μL; for Responses Males: number of males giving an EAG response to the peak; for electroantennogram (EAG) response: result in words; for Visual inspection (no of responses) >5 / Visual inspection (no of responses) >10 / Visual inspection (no of responses) >15: threshold of individuals responding; for Visual inspection (no of responses) Response: total EAG responses, Table 8
From the text: Experimental insects, unless otherwise stated, were mated males and females of C. lectularius that had been fed 7 to 14 days previously on heparinised sheep blood. The electrodes used to make recordings were Ag/AgCl wires (diameter 0.37 mm) inserted into glass pipettes, made from borosilicate glass capillaries (outer diameter 2.0 mm; inner diameter 1.16 mm). The glass pipettes were filled with Ringers solution (7.55 g NaCl, 0.64 g KCl, 0.22 g CaCl2, 1.73 g MgCl2 g, 0.86 g NaHCO3 and 0.61 g Na3PO4 L^−1 water). The bed bug was then chilled on ice for one minute before dissection. Preparations were held in a continuous, humidified, charcoal filtered air flow ([…]) coming from a glass tube, which was positioned 5 mm from the antennal preparation. Once the antennal preparation and EAG equipment were in position the microscope light was switched off.
The GC used was a HP-680N, containing a HP-1 column (30 m×0.32 mm; film thickness, 0.52 μm) with a COC injector, hydrogen carrier gas and a FID. The oven temperature was maintained at 40° C. for two min and then programmed at 5° C. min^−1 to 100° C. and then at 10° C. […] to 250° C. The end of the column was inserted into the centre of the main air flow so that the eluent went over the antennal preparation. […] Amplification of the signals was set at ×10,000. Signals were analysed using the computer-based software package, EAD 2000 (Syntech®, The Netherlands). The volatile extract (1 μL) from an air entrainment of bed bug-exposed papers (see Example 1) was injected onto the column. A solution of n-alkanes (C7-C25, 1 μL of 100 ng μL^−1) in hexane was also analysed to calculate the retention indices (RI) of any EAG-active peaks for comparison with GC and coupled GC-MS traces (Equation 1).
Electroantennographic (EAG) responses from the coupled gas chromatography-electroantennographic (GC-EAG) analysis of the volatile extract collected using air entrainment were determined by visual appearance. Coupled GC-EAG traces were examined visually on a light box to identify EAG responses and match them to peaks on the GC traces. A combination of characteristics including the amplitude and shape of the deflection from the baseline were used to identify EAG responses. For example, an EAG response is usually of greater amplitude than the background noise and it has a characteristic negative deflection followed by a quick positive deflection resulting in a short sharp response often of similar shape and position as the corresponding peak on the GC trace. Responses were matched between males and females separately onto master traces for each sex. The EAG-active peaks were labelled from 1 to 21. Male and female master traces were then overlaid to identify where consistent responses occurred in both sexes. Five or more individuals responding at the same retention time on the GC trace was considered to be a consistent EAG response and the corresponding peak on the GC trace was considered to be EAG-active. Three thresholds were used: greater than 5, greater than 10 or greater than 15 individuals responding to the same GC peak or at the same retention time. The traces were then subjected to manual or automated statistical analysis.

[3] = tested on: bed bugs; conditions: volatile components of aggregation pheromone; cited from earlier work
[4] = tested on: bed bugs; assay: Behavioural bioassay, dose responses of individual chemicals (Example 8); type: in vivo, Cimex lectularius; conditions: for dose response: 0.008× to 8000×; for doses on which further synthetic blends should focus: × relative to 8% natural standard (8×=1× standard)
Experimental: Methods: The behavioural bioassay was as described by Weeks et al. 2011 and recorded using EthoVision and the methodology described by Weeks et al. 2013. For each chemical, (E)-2-octenal, (RS)-1-octen-3-ol and nonanal, seven doses were tested from 0.008× to 8000×, along with three controls. Each replicate was completed as a block of 10 treatments including: We are referring here to either 0.001×, 0.01×, 0.1×, 1×, 10×, 100× or 1000× the dose of (E)-2-octenal found naturally in the aggregation pheromone. For instance, an “8% solution” refers to an 8% dose of volatile extract (with the various different ratios of individual component). In each block the order of the treatments and the position of the odour pot were randomized. 10 blocks were completed for each chemical (n=10).

Row | SMILES | time spent over the odour pot compared with blends ([1]; (E)-2-octenal 800 treatment) | Electrophysiology Auto method [2] | Responses Total [2] | Responses Females [2] | Responses Males [2] | electroantennogram (EAG) response [2] | Visual inspection (no of responses) >5 [2] | Visual inspection (no of responses) >10 [2] | Visual inspection (no of responses) >15 [2] | Visual inspection (no of responses) Response [2] | attraction of bed bugs to safe shelters [3] | dose response [4] | doses on which further synthetic blends should focus [4] | zone duration compared to zero ([1]; nonanal 80)
1 | CCCCC/C=C/C=O (single isomer, unassigned) [(E)-2-octenal] | significantly lower in time spent over the odour pot than 80-800 and 8-800 | • | 16 | 8 | 8 | EAG-active | • (>5) | • (>10) | • (>15) | 16 | attract bed bugs to safe shelters | clear dose response was observed | 800-8000 × | –
2 | CCCCCCCCC=O [Nonanal, nonanal] | – | • | 17 | 9 | 8 | EAG-active | • (>5) | • (>10) | • (>15) | 17 | – | clear dose response was observed | 8-80 × | significantly greater in time spent above the odour pot in the odour zone
